Data reported in patent publication US20150004202A1, “ANTIBACTERIAL AGENT AGAINST PLANT DISEASE-CAUSING BACTERIA” (priority 2012, published 2015).
In brackets after ≈: the same amount, converted by molar mass. Where two headings read alike, the source gives them in different places.

Tests used:
[1] = tested on: tomato canker-causing bacteria standard strains (JCM1370, JCM1373); assay type: cell-based, Clavibacter michiganensis subsp. michiganensis; conditions: 24 hours after addition
[2] = tested on: Ralstonia solanacearum (field isolates KNOB38, KNOB39), eggplant wilt-causing bacteria; experiment: microbe, parasite or virus in culture; assay type: cell-based
[3] = tested on: Curtobacterium flaccumfaciens pv. flaccumfaciens standard strain (JCM1347), kidney bean wilt-causing bacterium; experiment: MIC of various amino acid-containing particles, HI medium; assay type: cell-based; conditions: 24 hours after addition
[4] = tested on: field isolates listed in Table 6 (KNOB30 to KNOB110), bacteria pathogenic to crops; experiment: as above; assay type: cell-based; conditions: 24 hours after addition
Experimental: (1) Freeze-stored 4 strains were seeded on heart infusion medium and PSA medium. (2) Seeded bacteria were cultured at 25° C. for 48 hours. (3) The antibacterial activity was assessed by measurement of the minimum inhibitory concentration (MIC) in accordance with a broth microdilution method. HI medium prepared without agar was used as a liquid medium. […] The above-described antibacterial agents were added to the liquid media at various concentrations, respectively, and the cultured bacteria described in (2) were inoculated thereto, followed by judgement of the results 24 hours and 48 hours after inoculation. The tests were repeated three times (n=3).
The antibacterial activity of nanoparticles containing Gly, Arg, Asp, or Ala produced above was examined. As test bacteria, field isolates listed in Table 6, tomato canker-causing bacteria standard strains (JCM1370, JCM1373), and kidney bean wilt-causing bacterium Curtobacterium flaccumfaciens pv. flaccumfaciens standard strain (JCM1347) were used.

[5] = tested on: Clavibacter michiganensis subsp. michiganensis (field isolates KNOB16, KNOB23), tomato canker-causing bacteria; experiment: MIC by broth microdilution (investigation of measurement conditions); assay type: cell-based
[6] = Curtobacterium flaccumfaciens, read-out: MIC
[7] = 24 h, KNOB30, HI medium, read-out: MIC
[8] = 24 h, KNOB33, HI medium, read-out: MIC
[9] = 24 h, KNOB67, HI medium, read-out: MIC
[10] = 24 h, KNOB75, HI medium, read-out: MIC
[11] = 24 h, KNOB105, HI medium, read-out: MIC
[12] = 24 h, KNOB106, HI medium, read-out: MIC
[13] = 24 h, KNOB108, HI medium, read-out: MIC
[14] = 24 h, KNOB110, HI medium, read-out: MIC
[15] = Clavibacter michiganensis, 24 h, KNOB16, HI medium, 24 H later
[16] = Clavibacter michiganensis, 24 h, KNOB16, PSA medium, 24 H later
[17] = Clavibacter michiganensis, 24 h, KNOB23, HI medium, 24 H later
[18] = Clavibacter michiganensis, 24 h, KNOB23, PSA medium, 24 H later
[19] = Clavibacter michiganensis, 48 h, KNOB16, HI medium, 48 H later
[20] = Clavibacter michiganensis, 48 h, KNOB16, PSA medium, 48 H later
[21] = Clavibacter michiganensis, 48 h, KNOB23, HI medium, 48 H later
[22] = Clavibacter michiganensis, 48 h, KNOB23, PSA medium, 48 H later

## CC1(C)S[C@@H]2[C@H](NC(=O)[C@H](N)c3ccccc3)C(=O)N2[C@H]1C(=O)O [ABPC, ampicillin]
[1]; JCM1370, HI medium
  MIC: 0.5 µg/mL (≈ 1.43 µM)
[1]; JCM1373, HI medium
  MIC: 1 µg/mL (≈ 2.86 µM)
[2]; KNOB39, HI medium, 24 H later
  MIC: 0.5 µg/mL (≈ 1.43 µM)
[2]; KNOB39, HI medium, 48 H later
  MIC: 0.5 µg/mL (≈ 1.43 µM)
[2]; Ralstonia solanacearum, 24 h
  MIC: 0.5 µg/mL (≈ 1.43 µM)
[2]; Ralstonia solanacearum, 48 h
  MIC: 0.5 µg/mL (≈ 1.43 µM)
[3]; [6]
  MIC: 2 µg/mL
[4]; [7]
  MIC: 0.5 µg/mL
[4]; [8]
  MIC: < 0.25 µg/mL
[4]; 24 h, KNOB64, HI medium
  MIC: < 0.25 µg/mL
[4]; [9]
  MIC: < 0.25 µg/mL
[4]; [10]
  MIC: 0.5 µg/mL
[4]; [11]
  MIC: < 0.25 µg/mL
[4]; [12]
  MIC: < 0.25 µg/mL
[4]; [13]
  MIC: 0.5 µg/mL
[4]; [14]
  MIC: < 0.25 µg/mL
[5]; [15]
  MIC: 0.25 µg/mL (≈ 0.715 µM)
[5]; [16]
  MIC: 0.5 µg/mL (≈ 1.43 µM)
[5]; [17]
  MIC: 0.25 µg/mL (≈ 0.715 µM)
[5]; [18]
  MIC: 0.5 µg/mL (≈ 1.43 µM)
[5]; [19]
  MIC: 0.25 µg/mL (≈ 0.715 µM)
[5]; [20]
  MIC: 1 µg/mL (≈ 2.86 µM)
[5]; [21]
  MIC: 0.25 µg/mL (≈ 0.715 µM)
[5]; [22]
  MIC: 0.5 µg/mL (≈ 1.43 µM)

## CCO [EtOH, ethanol]
[1]; JCM1370, HI medium
  MIC: 15 µg/mL (≈ 326 µM)
[1]; JCM1373, HI medium
  MIC: 30 µg/mL (≈ 651 µM)
[2]; KNOB38, HI medium, 24 H later
  MIC: 7.5 µg/mL (≈ 163 µM)
[2]; KNOB38, HI medium, 48 H later
  MIC: 15 µg/mL (≈ 326 µM)
[2]; KNOB39, HI medium, 24 H later
  MIC: 7.5 µg/mL (≈ 163 µM)
[2]; KNOB39, HI medium, 48 H later
  MIC: 7.5 µg/mL (≈ 163 µM)
[2]; comparison of MIC values of Table 5
  antibacterial activity against eggplant wilt-causing bacteria compared with KAS: stronger than KAS and nanoparticles
[3]
  MIC: 15 µg/mL
[4]; KNOB30, HI medium
  MIC: 30 µg/mL
[4]; KNOB33, HI medium
  MIC: 30 µg/mL
[4]; KNOB64, HI medium
  MIC: 30 µg/mL
[4]; KNOB67, HI medium
  MIC: 30 µg/mL
[4]; KNOB75, HI medium
  MIC: 60 µg/mL
[4]; KNOB105, HI medium
  MIC: 15 µg/mL
[4]; KNOB106, HI medium
  MIC: 7.5 µg/mL
[4]; KNOB108, HI medium
  MIC: 15 µg/mL
[4]; KNOB110, HI medium
  MIC: 15 µg/mL
[5]; KNOB16, HI medium, 24 H later
  MIC: 15 µg/mL (≈ 326 µM)
[5]; KNOB16, HI medium, 48 H later
  MIC: 30 µg/mL (≈ 651 µM)
[5]; KNOB16, PSA medium, 24 H later
  MIC: 60 µg/mL (≈ 1300 µM)
[5]; KNOB16, PSA medium, 48 H later
  MIC: 7.5 µg/mL (≈ 163 µM)
[5]; KNOB23, HI medium, 24 H later
  MIC: 15 µg/mL (≈ 326 µM)
[5]; KNOB23, HI medium, 48 H later
  MIC: 30 µg/mL (≈ 651 µM)
[5]; KNOB23, PSA medium, 24 H later
  MIC: 7.5 µg/mL (≈ 163 µM)
[5]; KNOB23, PSA medium, 48 H later
  MIC: 15 µg/mL (≈ 326 µM)

## C[C@H]1O[C@H](O[C@H]2[C@H](O)[C@@H](O)[C@@H](O)[C@H](O)[C@@H]2O)[C@@H](N)C[C@@H]1NC(=N)C(=O)O [KAS, kasugamycin]
[1]; JCM1370, HI medium
  MIC: 128 µg/mL (≈ 337 µM)
[1]; JCM1373, HI medium
  MIC: 64 µg/mL (≈ 169 µM)
[2]; KNOB38, HI medium, 24 H later
  MIC: 8 µg/mL (≈ 21.1 µM)
[2]; KNOB38, HI medium, 48 H later
  MIC: 16 µg/mL (≈ 42.2 µM)
[2]; KNOB39, HI medium, 24 H later
  MIC: 8 µg/mL (≈ 21.1 µM)
[2]; KNOB39, HI medium, 48 H later
  MIC: 16 µg/mL (≈ 42.2 µM)
[3]
  MIC: 128 µg/mL
[4]; KNOB30, HI medium
  MIC: 32 µg/mL
[4]; KNOB33, HI medium
  MIC: 64 µg/mL
[4]; KNOB64, HI medium
  MIC: 64 µg/mL
[4]; KNOB67, HI medium
  MIC: 64 µg/mL
[4]; KNOB75, HI medium
  MIC: 64 µg/mL
[4]; KNOB105, HI medium
  MIC: 32 µg/mL
[4]; KNOB106, HI medium
  MIC: 32 µg/mL
[4]; KNOB108, HI medium
  MIC: 32 µg/mL
[4]; KNOB110, HI medium
  MIC: 32 µg/mL
[5]; KNOB16, HI medium, 24 H later
  MIC: 32 µg/mL (≈ 84.4 µM)
[5]; KNOB16, HI medium, 48 H later
  MIC: 32 µg/mL (≈ 84.4 µM)
[5]; KNOB16, PSA medium, 24 H later
  MIC: 16 µg/mL (≈ 42.2 µM)
[5]; KNOB16, PSA medium, 48 H later
  MIC: 16 µg/mL (≈ 42.2 µM)
[5]; KNOB23, HI medium, 24 H later
  MIC: 32 µg/mL (≈ 84.4 µM)
[5]; KNOB23, HI medium, 48 H later
  MIC: 32 µg/mL (≈ 84.4 µM)
[5]; KNOB23, PSA medium, 24 H later
  MIC: 16 µg/mL (≈ 42.2 µM)
[5]; KNOB23, PSA medium, 48 H later
  MIC: 32 µg/mL (≈ 84.4 µM)

## [H]/N=C(/N)N[C@H]1[C@H](O)[C@@H](O)[C@H](O[C@@H]2O[C@@H](C)[C@](O)(C=O)[C@H]2O[C@@H]2O[C@@H](CO)[C@H](O)[C@@H](O)[C@@H]2NC)[C@@H](N/C(N)=N\[H])[C@@H]1O [ST, streptomycin]
[1]; JCM1370, HI medium
  MIC: 3.9 µg/mL (≈ 6.71 µM)
[1]; JCM1373, HI medium
  MIC: 7.8 µg/mL (≈ 13.4 µM)
[2]; KNOB39, HI medium, 24 H later
  MIC: 8 µg/mL (≈ 13.8 µM)
[2]; KNOB39, HI medium, 48 H later
  MIC: 8 µg/mL (≈ 13.8 µM)
[2]; Ralstonia solanacearum, 24 h
  MIC: 8 µg/mL (≈ 13.8 µM)
[2]; Ralstonia solanacearum, 48 h
  MIC: 8 µg/mL (≈ 13.8 µM)
[3]; [6]
  MIC: 0.39 µg/mL
[4]; [7]
  MIC: 1.56 µg/mL
[4]; [8]
  MIC: 0.78 µg/mL
[4]; 24 h, KNOB64, HI medium
  MIC: 1.56 µg/mL
[4]; [9]
  MIC: 1.56 µg/mL
[4]; [10]
  MIC: 1.56 µg/mL
[4]; [11]
  MIC: 1.56 µg/mL
[4]; [12]
  MIC: 1.56 µg/mL
[4]; [13]
  MIC: 1.56 µg/mL
[4]; [14]
  MIC: 1.56 µg/mL
[5]; [15]
  MIC: 2 µg/mL (≈ 3.44 µM)
[5]; [16]
  MIC: 4 µg/mL (≈ 6.88 µM)
[5]; [17]
  MIC: 1 µg/mL (≈ 1.72 µM)
[5]; [18]
  MIC: 4 µg/mL (≈ 6.88 µM)
[5]; [19]
  MIC: 2 µg/mL (≈ 3.44 µM)
[5]; [20]
  MIC: 8 µg/mL (≈ 13.8 µM)
[5]; [21]
  MIC: 1 µg/mL (≈ 1.72 µM)
[5]; [22]
  MIC: 4 µg/mL (≈ 6.88 µM)
